Experimental data as given in ChEMBL document CHEMBL1201862, “PubChem BioAssay data set” (2004).
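Following 48 hours of exposure in 96-well plates, responses at five concentrations were used to interpolate endpoints linearly. At the GI50, growth is halved.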 Activity calls are given as the source filed them. Cut-off read from the data, not from the text of the source: active = GI50 up to about 1.1 µM and inactive = higher.

Tests used:
Experiment in all cases: growth of human tumour cells (NCI), 48 h
HCC 2998 = test system: HCC 2998
HCT-116 = test system: HCT-116
HCT-15 = test system: HCT-15
M14 = test system: M14
MDA-MB-231 = test system: MDA-MB-231
MDA-MB-435 = test system: MDA-MB-435
Malme-3M = test system: Malme-3M
OVCAR-3 = test system: OVCAR-3
OVCAR-5 = test system: OVCAR-5
PC-3 = test system: PC-3
SF-268 = test system: SF-268
SK-MEL-5 = test system: SK-MEL-5
SNB-19 = test system: SNB-19
SNB-75 = test system: SNB-75
UACC-257 = test system: UACC-257
UO-31 = test system: UO-31
KM12 = test system: KM12
U-251 = test system: U-251
UACC-62 = test system: UACC-62
A498 = test system: A498

SMILES | GI50 (HCC 2998) | GI50 (HCT-116) | GI50 (HCT-15) | GI50 (M14) | GI50 (MDA-MB-231) | GI50 (MDA-MB-435) | GI50 (Malme-3M) | GI50 (OVCAR-3) | GI50 (OVCAR-5) | GI50 (PC-3) | GI50 (SF-268) | GI50 (SK-MEL-5) | GI50 (SNB-19) | GI50 (SNB-75) | GI50 (UACC-257) | GI50 (UO-31) | GI50 (KM12) | GI50 (U-251) | GI50 (UACC-62) | GI50 (A498)
COc1ccc(NC2CC(C)N(C(=O)c3ccccc3)O2)cc1 (stereo not drawn) | > 10 µM (inactive) | > 10 µM (inactive) | > 10 µM | > 10 µM (inactive) | > 10 µM (inactive) | > 10 µM (inactive) | > 10 µM (inactive) | > 10 µM (inactive) | > 10 µM (inactive) | > 10 µM (inactive) | > 10 µM (inactive) | > 10 µM (inactive) | > 10 µM (inactive) | > 10 µM (inactive) | > 10 µM (inactive) | > 10 µM (inactive) | – | – | – | –
CC(NC(=O)c1ccccc1)NC(=O)C(C)C(=O)Nc1ccccc1 (stereo not drawn) | – | > 100 µM (inactive) | > 100 µM | > 100 µM (inactive) | > 100 µM (inactive) | > 100 µM (inactive) | > 100 µM (inactive) | – | > 100 µM (inactive) | > 100 µM (inactive) | 62.2 µM (inactive) | > 100 µM (inactive) | 27.4 µM (inactive) | 33.3 µM (inactive) | > 100 µM (inactive) | > 100 µM (inactive) | > 100 µM (inactive) | > 100 µM (inactive) | > 100 µM (inactive) | –
C[C@]12CCC(O)CC1=CC[C@@H]1[C@@H]2CC[C@]2(C)C(O)[C@H](n3ccnc3)C[C@@H]12 (stereo partly drawn) | – | 59.4 µM (inactive) | 69.2 µM | > 100 µM (inactive) | > 100 µM (inactive) | 75 µM (inactive) | > 100 µM (inactive) | 72.4 µM (inactive) | > 100 µM (inactive) | 41.5 µM (inactive) | > 100 µM (inactive) | 28.1 µM (inactive) | 90.4 µM (inactive) | > 100 µM (inactive) | 28.2 µM (inactive) | > 100 µM (inactive) | 56.2 µM (inactive) | 52 µM (inactive) | 77.1 µM (inactive) | > 100 µM (inactive)
O=C(/C=C/c1ccc([N+](=O)[O-])cc1)c1nc2ccccc2[nH]1 | – | 1.88 µM (inactive) | 33 µM | > 88.9 µM (inactive) | 26.9 µM (inactive) | > 72.3 µM (inactive) | > 100 µM (inactive) | 9.44 µM (inactive) | 3.54 µM (inactive) | > 64.4 µM (inactive) | 39.4 µM (inactive) | 52.2 µM (inactive) | > 93.3 µM (inactive) | 45.3 µM (inactive) | 9.08 µM (inactive) | > 69.8 µM (inactive) | 29.9 µM (inactive) | 13.2 µM (inactive) | 5.89 µM (inactive) | 1.73 µM (inactive)
NN/C(=N\S(=O)(=O)c1cc2ccccc2o1)Nc1ccc(Cl)cc1 | – | > 100 µM (inactive) | > 100 µM | > 100 µM (inactive) | 67.9 µM (inactive) | – | > 100 µM (inactive) | 36.6 µM (inactive) | > 100 µM (inactive) | > 100 µM (inactive) | 33.9 µM (inactive) | > 100 µM (inactive) | 60.8 µM (inactive) | 13.1 µM (inactive) | > 100 µM (inactive) | > 100 µM (inactive) | > 100 µM (inactive) | 46.6 µM (inactive) | > 100 µM (inactive) | > 100 µM (inactive)
O=C(NC1CCC(=O)N1C(=O)OCc1ccccc1)OCc1ccccc1 (stereo not drawn) | > 100 µM (inactive) | – | > 100 µM | > 100 µM (inactive) | > 100 µM (inactive) | > 100 µM (inactive) | > 100 µM (inactive) | > 100 µM (inactive) | > 100 µM (inactive) | > 100 µM (inactive) | > 100 µM (inactive) | > 100 µM (inactive) | > 100 µM (inactive) | 77.6 µM (inactive) | > 100 µM (inactive) | > 100 µM (inactive) | > 100 µM (inactive) | > 100 µM (inactive) | > 100 µM (inactive) | –
O=C(O)CC(Nc1ccccc1)C(=O)O (stereo not drawn) | – | > 100 µM (inactive) | > 100 µM | > 100 µM (inactive) | > 100 µM (inactive) | > 100 µM (inactive) | > 100 µM (inactive) | > 100 µM (inactive) | > 100 µM (inactive) | > 100 µM (inactive) | > 100 µM (inactive) | > 100 µM (inactive) | > 100 µM (inactive) | > 100 µM (inactive) | > 100 µM (inactive) | > 100 µM (inactive) | > 100 µM (inactive) | > 100 µM (inactive) | > 100 µM (inactive) | > 100 µM (inactive)
Cn1c(NN)nc(-c2ccc([N+](=O)[O-])cc2)c(C#N)c1=O | 13.7 µM (inactive) | 12.8 µM (inactive) | 16.4 µM | 12.5 µM (inactive) | 12.7 µM (inactive) | 17.9 µM (inactive) | 16.1 µM (inactive) | 17.1 µM (inactive) | 20.8 µM (inactive) | 15.3 µM (inactive) | 16 µM (inactive) | 4.25 µM (inactive) | 13.5 µM (inactive) | 20.4 µM (inactive) | 15.7 µM (inactive) | 16.3 µM (inactive) | 16.3 µM (inactive) | 17.1 µM (inactive) | 15.6 µM (inactive) | –
C=CCN(C(=O)CNC(=O)C(F)(F)F)c1cc(OCc2ccccc2)c2c(c1)c(C)cn2S(=O)(=O)c1ccccc1 | > 100 µM (inactive) | 7.66 µM (inactive) | > 100 µM | > 100 µM (inactive) | > 24.1 µM (inactive) | 40.6 µM (inactive) | > 100 µM (inactive) | > 49.5 µM (inactive) | > 100 µM (inactive) | 5.96 µM (inactive) | 6.59 µM (inactive) | 24 µM (inactive) | > 100 µM (inactive) | 4.8 µM (inactive) | > 27.5 µM (inactive) | 2.9 µM (inactive) | 17.6 µM (inactive) | > 67.9 µM (inactive) | 6.76 µM (inactive) | –
Cc1ccc2c3c1O[C@H]1c4nc5ccccc5cc4C[C@@]4(O)[C@@H](C2)N(CC2CC2)CC[C@]314 | – | 4.54 µM (inactive) | 0.873 µM | 12.5 µM (inactive) | 11.2 µM (inactive) | 11.4 µM (inactive) | 14.5 µM (inactive) | 11.6 µM (inactive) | 12.7 µM (inactive) | 3.95 µM (inactive) | 7.03 µM (inactive) | 7.18 µM (inactive) | 12.8 µM (inactive) | – | 24.7 µM (inactive) | 10.4 µM (inactive) | 11.1 µM (inactive) | 5.74 µM (inactive) | 9.82 µM (inactive) | 16.5 µM (inactive)
CC1=CC(=O)C(=CN2C(=O)/C(=C\c3cccnc3)NC2=S)C(=O)O1 | > 100 µM (inactive) | > 100 µM (inactive) | > 100 µM | > 100 µM (inactive) | > 100 µM (inactive) | > 100 µM (inactive) | – | > 100 µM (inactive) | > 100 µM (inactive) | > 100 µM (inactive) | – | > 100 µM (inactive) | > 100 µM (inactive) | > 100 µM (inactive) | > 100 µM (inactive) | > 100 µM (inactive) | > 100 µM (inactive) | > 100 µM (inactive) | – | –
